In brackets after ≈: the same amount, converted by molar mass.
Assays:
[1] = Cytotoxicity assay in MT-4 cells; format: cell-based; conditions: human, uninfected MT-4 cells, average of at least two independent experiments, read-out: MT4 CC50
Procedure: Compounds were tested in a high-throughput 384-well assay format for their ability to inhibit the replication of HIV-1 (IIIB) in MT-4 cells. Compounds were serially diluted (1:3) in DMSO on 384-well polypropylene plates and further diluted 200-fold into complete RPMI media (10% FBS, 1% P/S) using the Biotek Micro Flow and Labcyte ECHO acoustic dispenser. Each plate contained up to 8 test compounds, with negative (no drug) and positive (5 μM AZT) controls. MT-4 cells were pre-treated with 10 μL of either RPMI (mock-infected) or a fresh 1:250 dilution of HIV-1 IIIB concentrated virus stock. Infected and uninfected MT-4 cells were further diluted in complete RPMI media and added to each plate using a Micro Flow dispenser. After 5 days incubation in a humidified and temperature-controlled incubator (37° C.), Cell Titer Glo (Promega) was added to the assay plates and chemiluminescence read using an Envision plate-reader. EC50 values were defined as the compound concentration that causes a 50% decrease in luminescence signal and were calculated using a sigmoidal dose-response model to generate curve fits and are shown in Table 1.
Example 105: Cytotoxicity Assay in MT-4 Cells
Assays were performed as described in Example 104 except uninfected MT-4 cells were added to each well containing test compound. In addition, 10 μM puromycin was added to the last column of each assay plate to assess a base level of cytotoxicity.

[2] = Kinetic solubility analysis; format: physicochemical; conditions: 1× PBS, 24.2 °C, aqueous buffer, kinetic from dmso stock; pH 7.4 PBS, 1% DMSO, 24-hour incubation at ambient temperature
Procedure: Example 108: Kinetic Solubility Analysis
Buffer Preparation: 0.1 N HCl: Hydrochloric acid, 0.1 N standardized solution (MP Biomedicals part number 199569). 1×PBS, pH 7.4: Phosphate Buffered Saline (PBS) solution 10× (Fisher Bioreagent part number BP399-500) 50 mL was added to approximately 450 mL HPLC grade H2O. The volume of the solution was then adjusted to 500 mL for a total dilution factor of 1:10 and a final PBS concentration of 1×.
The final DMSO concentration was 1.0% (v/v) and maximum theoretical compound concentration is 100 μM (for compound stock concentration of 10 mM). The filter plate was sealed. Following 24-hour incubation at ambient temperature (24.2-27.5° C.), the samples were vacuum filtered and the filtrates were collected in a 96 well polypropylene plate for analysis. The collection plate was sealed for analysis. Filtrates were injected into the Antek 8060 chemiluminescent nitrogen detector for quantification. The results are reported in μM.
The filtrates were quantified with respect to this calibration curve. Each calculated solubility value was corrected for background nitrogen present in the DMSO and in the medium used to prepare the sample. All reported values for compounds containing adjacent nitrogen atoms in a ring structure were increased by approximately 25%.

Row | solubility kinetic at 24 h [2] [mg/mL] | Structure (SMILES) | CC50 at 5 days [1] [µM]
1 | 0.002 (≈ 2.49 µM) | C[C@H](Cn1cnc2c(N)ncnc21)OCP(=O)(N[C@@](C)(Cc1ccccc1)C(=O)OCC1CCCCC1)N[C@@](C)(Cc1ccccc1)C(=O)OCC1CCCCC1 [Example 15, Bis(cyclohexylmethyl) 2,2′-((((((R)-1-(6-amino-9H-purin-9-yl)propan-2-yl)oxy)methyl)phosphoryl)bis(azanediyl))(2S,2'S)-bis(2-methyl-3-phenylpropanoate)] | 4.36
2 | 0.012 (≈ 18.4 µM) | CCCCCCOC(=O)C(C)(C)NP(=O)(CO[C@H](C)Cn1cnc2c(N)ncnc21)N[C@]1(C(=O)OCCCCCC)C[C@H]1CC (stereo partly drawn) [Example 16, Hexyl (1R,2R)-1-((((((R)-1-(6-amino-9H-purin-9-yl)propan-2-yl)oxy)methyl)((1-(hexyloxy)-2-methyl-1-oxopropan-2-yl)amino)phosphoryl)amino)-2-ethylcyclopropane-1-carboxylate] | 6.41
3 | – | CCCCCCOC(=O)[C@@]1(NP(=O)(CO[C@H](C)Cn2cnc3c(N)ncnc32)N[C@]2(C(=O)OCCCCCC)C[C@H]2CC)C[C@H]1CC [Example 17, Dihexyl 1,1′-((((((R)-1-(6-amino-9H-purin-9-yl)propan-2-yl)oxy)methyl)phosphoryl)bis(azanediyl))(1R,1′R,2R,2′R)-bis(2-ethylcyclopropane-1-carboxylate)] | 8.85
4 | 0.022 (≈ 34.5 µM) | CCCCCCOC(=O)C(C)(C)NP(=O)(CO[C@H](C)Cn1cnc2c(N)ncnc21)NC1(C(=O)OCCCCCC)CCC1 (stereo partly drawn) [Example 18, Hexyl 1-((((((R)-1-(6-amino-9H-purin-9-yl)propan-2-yl)oxy)methyl)((1-(hexyloxy)-2-methyl-1-oxopropan-2-yl)amino)phosphoryl)amino)cyclobutane-1-carboxylate] | 6.57
5 | 0.018 (≈ 27.7 µM) | CCCCCCOC(=O)C1(NP(=O)(CO[C@H](C)Cn2cnc3c(N)ncnc32)NC2(C(=O)OCCCCCC)CCC2)CCC1 [Example 19, Dihexyl 1,1′-(((((1-(6-amino-9H-purin-9-yl)propan-2-yl)oxy)methyl)phosphoryl)bis(azanediyl))(R)-bis(cyclobutane-1-carboxylate)] | 17.3
6 | 0.059 (≈ 99.4 µM) | C[C@H](Cn1cnc2c(N)ncnc21)OCP(=O)(NC(C)(C)C(=O)OC1CCCC1)NC(C)(C)C(=O)OC1CCCC1 [Example 34, Dicyclopentyl 2,2′-(((((1-(6-amino-9H-purin-9-yl)propan-2-yl)oxy)methyl)phosphoryl)bis(azanediyl))(R)-bis(2-methylpropanoate)] | 3.67
7 | 0.054 (≈ 94.8 µM) | CC(C)COC(=O)C(C)(C)NP(=O)(CO[C@H](C)Cn1cnc2c(N)ncnc21)NC(C)(C)C(=O)OCC(C)C [Example 35, Diisobutyl 2,2′-(((((1-(6-amino-9H-purin-9-yl)propan-2-yl)oxy)methyl)phosphoryl)bis(azanediyl))(R)-bis(2-methylpropanoate)] | 4.35
8 | 0.06 (≈ 111 µM) | CCCOC(=O)C(C)(C)NP(=O)(CO[C@H](C)Cn1cnc2c(N)ncnc21)NC(C)(C)C(=O)OCCC [Example 36, Dipropyl 2,2′-(((((1-(6-amino-9H-purin-9-yl)propan-2-yl)oxy)methyl)phosphoryl)bis(azanediyl))(R)-bis(2-methylpropanoate)] | 8.96
9 | – | C[C@H](Cn1cnc2c(N)ncnc21)OCP(=O)(NC(C)(C)C(=O)OC1CCC2(CCC2)CC1)NC(C)(C)C(=O)OC1CCC2(CCC2)CC1 (stereo partly drawn) [Example 63, Di(spiro[3.5]nonan-7-yl) 2,2′-(((((1-(6-amino-9H-purin-9-yl)propan-2-yl)oxy)methyl)phosphoryl)bis(azanediyl))(R)-bis(2-methylpropanoate)] | 2.22
10 | < 0.001 | CCCCCCOC(=O)C(NP(=O)(CO[C@H](C)Cn1cnc2c(N)ncnc21)NC(C(=O)OCCCCCC)(C1CC1)C1CC1)(C1CC1)C1CC1 [Example 64, Dihexyl 2,2′-(((((1-(6-amino-9H-purin-9-yl)propan-2-yl)oxy)methyl)phosphoryl)bis(azanediyl))(R)-bis(2,2-dicyclopropylacetate)] | 7.34
11 | 0.06 (≈ 97.8 µM) | CCCCCCOC(=O)C(C)(C)NP(=O)(CO[C@H](C)Cn1cnc2c(N)ncnc21)NC(C)(C)C(=O)OCC1(F)CC1 (stereo partly drawn) [Example 78, (1-Fluorocyclopropyl)methyl 2-((((((R)-1-(6-amino-9H-purin-9-yl)propan-2-yl)oxy)methyl)((1-(hexyloxy)-2-methyl-1-oxopropan-2-yl)amino)phosphoryl)amino)-2-methylpropanoate] | –
12 | 0.068 (≈ 108 µM) | CCCCCCOC(=O)C(C)(C)NP(=O)(CO[C@H](C)Cn1cnc2c(N)ncnc21)NC(C)(C)C(=O)OCC(C)(C)OC (stereo partly drawn) [Example 79, Hexyl 2-((((((R)-1-(6-amino-9H-purin-9-yl)propan-2-yl)oxy)methyl)((1-(2-methoxy-2-methylpropoxy)-2-methyl-1-oxopropan-2-yl)amino)phosphoryl)amino)-2-methylpropanoate] | –
13 | 0.056 (≈ 86.2 µM) | CCCCCCOC(=O)C(C)(C)NP(=O)(CO[C@H](C)Cn1cnc2c(N)ncnc21)NC(C)(C)C(=O)OCC12CCC(CC1)C2 (stereo partly drawn) [Example 80, Bicyclo[2.2.1]heptan-1-ylmethyl 2-((((((R)-1-(6-amino-9H-purin-9-yl)propan-2-yl)oxy)methyl)((1-(hexyloxy)-2-methyl-1-oxopropan-2-yl)amino)phosphoryl)amino)-2-methylpropanoate] | –
14 | 0.061 (≈ 100 µM) | CCCCCCOC(=O)C(C)(C)NP(=O)(CO[C@H](C)Cn1cnc2c(N)ncnc21)NC(C)(C)C(=O)OC(C)C1CC1 (stereo partly drawn) [Example 81, 1-Cyclopropylethyl 2-((((((R)-1-(6-amino-9H-purin-9-yl)propan-2-yl)oxy)methyl)((1-(hexyloxy)-2-methyl-1-oxopropan-2-yl)amino)phosphoryl)amino)-2-methylpropanoate] | –
15 | 0.01 (≈ 13.6 µM) | CCCCCCOC(=O)C(C)(C)NP(=O)(CO[C@H](C)Cn1cnc2c(NCc3oc(=O)oc3C)ncnc21)NC(C)(C)C(=O)OCCCCCC [Example 82, Dihexyl 2,2′-(((((1-(6-(((5-methyl-2-oxo-1,3-dioxol-4-yl)methyl)amino)-9H-purin-9-yl)propan-2-yl)oxy)methyl)phosphoryl)bis(azanediyl))(R)-bis(2-methylpropanoate)] | –
16 | 0.006 (≈ 8.36 µM) | C[C@H](Cn1cnc2c(N)ncnc21)OCP(=O)(NC(C)(C)C(=O)O[C@H]1C[C@@H](c2ccccc2)C1)NC(C)(C)C(=O)O[C@H]1C[C@@H](c2ccccc2)C1 [Example 85, Bis((1s,3S)-3-phenylcyclobutyl) 2,2′-((((((R)-1-(6-amino-9H-purin-9-yl)propan-2-yl)oxy)methyl)phosphoryl)bis(azanediyl))bis(2-methylpropanoate)] | –
17 | 0.001 (≈ 1.29 µM) | C[C@H](Cn1cnc2c(N)ncnc21)OCP(=O)(NC(C)(C)C(=O)O[C@H]1CC[C@H](c2ccccc2)CC1)NC(C)(C)C(=O)O[C@H]1CC[C@H](c2ccccc2)CC1 [Example 93, Bis(trans-4-phenylcyclohexyl) 2,2′-((((((R)-1-(6-amino-9H-purin-9-yl)propan-2-yl)oxy)methyl)phosphoryl)bis(azanediyl))bis(2-methylpropanoate)] | 5.47
18 | 0.06 (≈ 71.4 µM) | CCCCCCOC(=O)C(C)(C)NP(=O)(CO[C@H](C)Cn1cnc2c(NC(=O)OCC(=O)OCc3oc(=O)oc3C)ncnc21)NC(C)(C)C(=O)OCCCCCC [Example 95, Dihexyl 2,2′-(((((1-(6-(((2-((5-methyl-2-oxo-1,3-dioxol-4-yl)methoxy)-2-oxoethoxy)carbonyl)amino)-9H-purin-9-yl)propan-2-yl)oxy)methyl)phosphoryl)bis(azanediyl))(R)-bis(2-methylpropanoate)] | 14.8
19 | 0.092 (≈ 125 µM) | CCCCCCOC(=O)C(C)(C)NP(=O)(CO[C@H](C)Cn1cnc2c(NC(=O)[C@H]3CCC(=O)O3)ncnc21)NC(C)(C)C(=O)OCCCCCC [Example 96, Dihexyl 2,2′-((((((R)-1-(6-((R)-5-oxotetrahydrofuran-2-carboxamido)-9H-purin-9-yl)propan-2-yl)oxy)methyl)phosphoryl)bis(azanediyl))bis(2-methylpropanoate)] | 11
